Assay results taken from US11357779B2 (G1 Therapeutics, Inc., priority 2018, dated 2022).
Where two headings read alike, the source gives them in different places.

Test: Plasma concentration versus time of Compound I and metabolite Compound III in patients dosed QD or BID with Form B of Compound II plus fulvestrant
Type: in vivo, human
Conditions: human, plasma, oral, 650 mg; for concentration at 8 day: Day 8; for concentration at 15 day: Day 15; for concentration at 22 day: Day 22; for concentration at 0 h: Day 29, 0.0 h; for concentration at 1 h: Day 29, 1.0 h; for concentration at 2 h: Day 29, 2.0 h; for concentration at 3 h: Day 29, 3.0 h; for concentration at 4 h: Day 29, 4.0 h; for concentration at 6 h: Day 29, 6.0 h
Excerpt: Patients were enrolled into 1 of 2 parallel, independently operating, dose-escalation dosing cohorts with Form B of Compound II administered continuously either once daily (QD) or twice daily (BID) with food with fixed-dose fulvestrant (intramuscularly every 14 days for the first three injections and then every 28 days). Pre- or perimenopausal patients also received goserelin for the duration of study treatment. A […] agonist was started at least 28 days before the first dose of Form B, and those patients who were taking another LHRH agonist were switched to goserelin on Day 1. Patients were split into […] cohorts providing once a day (QD) dosing of 200 mg, 300 mg, 400 mg, 500 mg, or 650 mg of Form B, or twice a day (BID) dosing of 100 mg, 150 mg, or 200 mg of Form B. The second dose in BID cohorts was not administered in the evening until at least 12 hours after the initial morning dose of Form B. The dosing cohorts for Form B of Compound II are provided in Table 1.
Blood samples were collected at the following time points relative to the morning dose of Form B at Day 1 and at Day 29: pre-dose (0 hour) and 1, 2, 3, 4, 6, 8, 10, 12 (prior to the evening dose in the BID cohorts), and 24 (prior to the next day's morning dose) hours after dosing. A 5-minute time window was allowed for samples collected between the predose and 3 hours after Form B dosing. A 15-minute window was allowed for samples collected between 4 to 12 hours after Form B dosing. A 1-hour window was allowed for the sample collected 24 hours after Form B dosing. Blood samples for Compound I PK trough levels were collected pre-dose at Day 8, Day 15, and Day 22 prior to the morning administration of Compound I. Plasma concentrations of Compound I and its metabolite, Compound III, were measured using validated methods.
Analysis of plasma concentration versus time data for calculation of standard pharmacokinetic (PK) parameters following oral administration was conducted using Phoenix WinNonlin version 6.3 using actual blood sampling times.

[1] = Cohort 5, 650 mg QD of Form B, read-out: Trough Compound I Concentration, Max
[2] = Cohort 5, 650 mg QD of Form B, read-out: Trough Compound I Concentration, Mean
[3] = Cohort 5, 650 mg QD of Form B, read-out: Trough Compound I Concentration, Median
[4] = Cohort 5, 650 mg QD of Form B, read-out: Trough Compound I Concentration, Min
[5] = Cohort 5, 650 mg QD of Form B, read-out: Compound I Concentration, Max
[6] = Cohort 5, 650 mg QD of Form B, read-out: Compound I Concentration, Mean
[7] = Cohort 5, 650 mg QD of Form B, read-out: Compound I Concentration, Median
[8] = Cohort 5, 650 mg QD of Form B, read-out: Compound I Concentration, Min

`CC(C)N1CCN(c2ccc(Nc3ncc4cc5n(c4n3)C3(CCCCC3)CNC5=O)nc2)CC1` [Compound I, 2′-((5-(4-isopropylpiperazin-1-yl)pyridin-2-yl)amino)-7′,8′-dihydro-6′H-spiro[cyclohexane-1,9′-pyrazino[1′,2′:1,5]pyrrolo[2,3-d]pyrimidin]-6′-one] showed a concentration at 8 h (650 mg QD of Form B, Day 1, 8.0 h, Median, read-out: Compound I Concentration) of 60.3 ng/mL, a concentration at 10 h (650 mg QD of Form B, Day 1, 10.0 h, Mean, read-out: Compound I Concentration) of 48.4 ng/mL and a concentration at 10 h (650 mg QD of Form B, Day 1, 10.0 h, Median, read-out: Compound I Concentration) of 47.9 ng/mL. The concentration at 12 h (650 mg QD of Form B, Day 1, 12.0 h, Mean, read-out: Compound I Concentration) was 37.4 ng/mL, the concentration at 12 h (650 mg QD of Form B, Day 1, 12.0 h, Median, read-out: Compound I Concentration) was 37.3 ng/mL and the concentration at 24 h (650 mg QD of Form B, Day 1, […], Mean, read-out: Compound I Concentration) was 17.1 ng/mL. For the same compound, the concentration at 24 h (650 mg QD of Form B, Day 1, […], Median, read-out: Compound I Concentration) was 16 ng/mL, the concentration at 8 day [1] was 43.9 ng/mL and the concentration at 8 day [2] was 28.9 ng/mL. The concentration at 8 day [3] was 28.3 ng/mL, the concentration at 8 day [4] was 17 ng/mL and the concentration at 15 day [1] was 30.7 ng/mL. For the same compound, the concentration at 15 day [2] was 25.7 ng/mL, the concentration at 15 day [3] was 27.4 ng/mL and the concentration at 15 day [4] was 19.1 ng/mL. It also gave a concentration at 22 day [1] of 43.7 ng/mL, a concentration at 22 day [2] of 30.3 ng/mL and a concentration at 22 day [3] of 24 ng/mL. The concentration at 22 day [4] was 23.3 ng/mL, the concentration at 0 h [5] was 28.9 ng/mL and the concentration at 0 h [6] was 20.9 ng/mL. The concentration at 0 h [7] was 22.5 ng/mL, the concentration at 0 h [8] was 11.4 ng/mL and the concentration at 1 h [5] was 29.6 ng/mL. The concentration at 1 h [6] was 20.9 ng/mL, the concentration at 1 h [7] was 20.9 ng/mL and the concentration at 1 h [8] was 12.1 ng/mL. It also gave a concentration at 2 h [5] of 34.9 ng/mL, a concentration at 2 h [6] of 25.9 ng/mL and a concentration at 2 h [7] of 25.9 ng/mL. The concentration at 2 h [8] was 16.8 ng/mL, the concentration at 3 h [5] was 39.5 ng/mL and the concentration at 3 h [6] was 28.4 ng/mL. The concentration at 3 h [7] was 28.4 ng/mL, the concentration at 3 h [8] was 17.2 ng/mL and the concentration at 4 h [5] was 43.8 ng/mL. It also gave a concentration at 4 h [6] of 33.1 ng/mL, a concentration at 4 h [7] of 33.1 ng/mL and a concentration at 4 h [8] of 22.3 ng/mL. It also gave a concentration at 6 h [5] of 79.3 ng/mL, a concentration at 6 h [6] of 58.8 ng/mL and a concentration at 6 h [7] of 58.8 ng/mL. The concentration at 6 h [8] was 38.2 ng/mL, the concentration at 8 h (Cohort 5, 650 mg QD of Form B, Day 29, 8.0 h, read-out: Compound I Concentration, Max) was 88.7 ng/mL and the concentration at 8 h (Cohort 5, 650 mg QD of Form B, Day 29, 8.0 h, read-out: Compound I Concentration, Mean) was 66 ng/mL. It also gave a concentration at 8 h (Cohort 5, 650 mg QD of Form B, Day 29, 8.0 h, read-out: Compound I Concentration, Median) of 66 ng/mL, a concentration at 8 h (Cohort 5, 650 mg QD of Form B, Day 29, 8.0 h, read-out: Compound I Concentration, Min) of 43.2 ng/mL and a concentration at 10 h (Cohort 5, 650 mg QD of Form B, Day 29, 10.0 h, read-out: Compound I Concentration, Max) of 78.2 ng/mL. It also gave a concentration at 10 h (Cohort 5, 650 mg QD of Form B, Day 29, 10.0 h, read-out: Compound I Concentration, Mean) of 58.1 ng/mL, a concentration at 10 h (Cohort 5, 650 mg QD of Form B, Day 29, 10.0 h, read-out: Compound I Concentration, Median) of 58.1 ng/mL and a concentration at 10 h (Cohort 5, 650 mg QD of Form B, Day 29, 10.0 h, read-out: Compound I Concentration, Min) of 37.9 ng/mL. It also gave a concentration at 12 h (Cohort 5, 650 mg QD of Form B, Day 29, 12.0 h, read-out: Compound I Concentration, Max) of 63.2 ng/mL, a concentration at 12 h (Cohort 5, 650 mg QD of Form B, Day 29, 12.0 h, read-out: Compound I Concentration, Mean) of 46.3 ng/mL and a concentration at 12 h (Cohort 5, 650 mg QD of Form B, Day 29, 12.0 h, read-out: Compound I Concentration, Median) of 46.3 ng/mL. It also gave a concentration at 12 h (Cohort 5, 650 mg QD of Form B, Day 29, 12.0 h, read-out: Compound I Concentration, Min) of 29.4 ng/mL, a concentration at 24 h (Cohort 5, 650 mg QD of Form B, Day 29, […], read-out: Compound I Concentration, Max) of 27.8 ng/mL and a concentration at 24 h (Cohort 5, 650 mg QD of Form B, Day 29, […], read-out: Compound I Concentration, Mean) of 24.3 ng/mL. For the same compound, the concentration at 24 h (Cohort 5, 650 mg QD of Form B, Day 29, […], read-out: Compound I Concentration, Median) was 24.3 ng/mL and the concentration at 24 h (Cohort 5, 650 mg QD of Form B, Day 29, […], read-out: Compound I Concentration, Min) was 20.7 ng/mL.
